Earlier results, collected in PMC11678311, “Log BB Prediction Models Using TLC and HPLC Retention Values as Protein Affinity Data” (Pharmaceutics, 2024).

Conditions: drugs highly bound to plasma proteins whose log BB may be less than zero

SMILES | penetration of the blood–brain barrier / central action
CC(C)Cc1ccc(C(C)C(=O)O)cc1 (centres unmarked) [ibuprofen] | cross the blood–brain barrier in an unbound state and act centrally
Cc1ncc2n1-c1ccc(Cl)cc1C(c1ccccc1F)=NC2 [midazolam] | cross the blood–brain barrier in an unbound state and act centrally
